“Also recorded” adds a separate entry of the source. Structures can show the parent of a compound that is named as a salt. Marks after values point to notes of the source that are not given here.
Assays:
[1] = Maturation in 12 different solvents with thermal cycling, XRPD; format: physicochemical; conditions: slurries cycled between room temperature and 50 °C (4 hours each) for 3 days
Experimental: The resulting slurries were subjected to maturation with thermal cycling between room temperature and 50° C. (4 hours at each condition) for 3 days. Solids were then analysed by XRPD.

[2] = Solubility in FaSSGF (Fasted State Simulated Gastric Fluid) at 37 °C; format: physicochemical; conditions: free base component, average n=2
Experimental: Preparation of solutions: Solubility tests in FaSSGF were carried out at 37° C. and in water at room temperature for 2 hour and 6 hour timepoints. 50 mg solid was added to 0.5 mL media and incubated on an orbital shaker for 6 hours. (For free base in water 20 mg samples were used). Slurry/solution was sampled at 2 and 6 hours and aliquots were filtered through 0.45 micron PTFE filters. The filtrate was diluted 500 fold with the appropriate (same) media and injected on to UPLC.
(For free base in water ≥40 mg·mL^−1). […] Results were calculated based on a standard calibration curve of appropriate free base. Values quoted are for the free base component of each salt and are average of two (n=2) determinations.

[3] = Brain tissue concentrations in rats after intravenous dosing
[4] = Plasma pharmacokinetics and bioavailability in rats, oral gavage and intravenous (bolus); conditions: for Tmax: rat plasma, label = analyte, IAD = immediately after dosing
[5] = Observation of isolated freeze dried solid; format: physicochemical; conditions: freeze dried citrate salt
Experimental: This gave an oil. Additional water was added until a solution was obtained. […] The obtained citrate salt was amorphous as shown by X-ray powder diffraction (XRPD) pattern in FIG. 37A.

[6] = Psilocin stability in 0.1 M acid solutions with or without metal ions, 40 °C; format: physicochemical; conditions: up to 24 h
Description: Ascorbic acid (AsA), acetic acid (AcA), tartaric acid (TA), fumaric acid (FA), citric acid (CA), malic acid (MA), benzenesulfonic acid (BSA), stearic acid (SA), sodium citrate dihydrate, monosodium phosphate hydrate, disodium phosphate were purchased from Sigma Aldrich. Aluminum (III) chloride (AlCl3) and iron (III) chloride (FeCl3) were purchased from Sigma Aldrich. Antioxidants, i.e., ethylenediaminetetraacetic acid (EDTA), ascorbic acid (AsA), L-cysteine (Cys), sodium metabisulfite (NamBiSO3) and propyl gallate (PG) were purchased from Sigma Aldrich. Hydroxypropyl-β-cyclodextrin (CAVASOL® W7 HP, CAVITRON® W7 HP7) and methyl-β-cyclodextrin (CAVASOL® W7 M) were provided by DuPont.
The following chromatographic conditions were used:
Diluent. The diluent used in the below studies was prepared as follows: 100 mL of acetonitrile (ACN) was mixed with 800 mL of water and 100 mL of 1.0 M citric acid and mixed well to prepare 1 L of diluent.
The stability of psilocin in 0.1 M solutions of various acids was tested.
Test solutions: To prepare the test solutions, 0.1 M solutions of AsA, AcA, TA, FA, CA, MA, BSA, and SA were prepared in DI water.

[7] = Psilocin stability in 0.1 M sodium citrate buffer at 4, 23 and 40 °C; format: physicochemical
Experimental: (§1) Preparation of 0.1 M sodium citrate buffer (pH 6.01): 2.427 g of sodium citrate dihydrate and 0.336 g of citric acid were dissolved in 80 ml of DI water. The pH was adjusted to 6.0 using a 1 M NaOH solution. The final volume was adjusted to 100 ml.

[8] = Psilocin stability comparison between sodium citrate and phosphate buffer, 40 °C; format: physicochemical; conditions: 0.1 M, 24 h
Experimental: The effect of buffer type and pH on the stability of psilocin was assessed.
as §1
Preparation of 0.1 M phosphate buffer (pH 6.0 and pH 7.5): Monosodium phosphate (0.339 g, 0.002 moles) and disodium phosphate (2.021 g, 0.014 moles) were dissolved in 80 ml water and the pH was adjusted as necessary using sodium hydroxide or phosphoric acid. The volume was adjusted to 100 ml using water.
Test solutions: Psilocin (1 mg/ml) was mixed with (i) 0.1 M sodium citrate buffer (pH 6.01), (ii) 0.1 M phosphate buffer (pH 6.0), and (iii) 0.1 M phosphate buffer (pH 7.5) in a 1:1 v/v ratio.

[9] = Long-term (up to 25 days) psilocin stability in citric acid solution and sodium citrate buffer; format: physicochemical; conditions: 0.1 M
Experimental: The long-term stability (up to 25 days) of psilocin in a citric acid solution (0.1 M, pH 1.60) and a sodium citrate buffer (0.1 M, pH 6.01) at 4C and 23° C. was assessed.
as §1
Test solutions: Psilocin (1 mg/ml), was mixed with (i) sodium citrate buffer (0.1 M, pH 6.01) and (ii) citric acid solution (0.1 M, pH 1.60) in 1:1 v/v. The samples were stored at 4° C. and 23° C., and aliquots were sampled at designated timepoints (days 0, 7, 17, and 25).

[10] = Psilocin stability with cyclodextrin complexes, 40 °C; conditions: 1% w/w cyclodextrin, up to 24 h
[11] = Psilocin stability in dilute citric acid solution at 4, 23 and 40 °C
[12] = Psilocin stability with antioxidants against metal induced degradation, 40 °C; conditions: 20 μM antioxidant, up to 24 h
[13] = Group 3, IV, psilocybin dosed 2.8 mg/kg

[2H]C([2H])([2H])N(C([2H])([2H])[2H])C([2H])([2H])C([2H])([2H])c1c[nH]c2cccc(O)c12 [Compound I-3j, Benzoate Salt of 3-(2-(bis(methyl-d3)amino)ethyl-1,1,2,2-d4)-1H-indol-4-ol]
crystalline form by XRPD after maturation in 12 different solvents [1]: retained their initial crystalline form (pattern 1) | Solubility FaSSGF 6 hours [2]: 12.79 mg/mL

CN(C)CCc1c[nH]c2cccc(OP(=O)(O)O)c12 [psilocybin, Psilocybin]
brain concentrations of psilocybin versus plasma [3]: brain concentrations of psilocybin are low | bioavailability ([4]; male, Sprague Dawley, rat, plasma, po, 14 mg/kg): < 0.1% | Tmax [4, 13]: IAD

CN(C)CCc1c[nH]c2cccc(O)c12 [Compound I-7c, Hemi-Fumarate Salt of 3-(2-(dimethylamino)ethyl)-1H-indol-4-ol]
crystalline form by XRPD after maturation in 12 different solvents [1]: complex polymorphism with multiple crystalline patterns obtained | Solubility FaSSGF 6 hours [2]: ≥ 52.25* mg/mL

CN(C)CCc1c[nH]c2cccc(O)c12 [Compound I-7e, Citrate Salt of 3-(2-(dimethylamino)ethyl)-1H-indol-4-ol]
behaviour of isolated amorphous solid [5]: hygroscopic and rapidly became sticky

CN(C)CCc1c[nH]c2cccc(O)c12 [Compound I-7a, benzenesulfonate salt of 3-(2-(dimethylamino)ethyl)-1H-indol-4-ol]
crystalline form by XRPD after maturation in 12 different solvents [1]: retained their initial crystalline form (pattern 1)

CN(C)CCc1c[nH]c2cccc(O)c12 [Compound I-7j, Benzoate Salt of 3-(2-(dimethylamino)ethyl)-1H-indol-4-ol]
crystalline form by XRPD after maturation in 12 different solvents [1]: retained their initial crystalline form; also recorded: the same pattern 1 by XRPD was observed | Solubility FaSSGF 6 hours [2]: 9.79 mg/mL

CN(C)CCc1c[nH]c2cccc(O)c12 [Compound I-7b, tartrate salt of 3-(2-(dimethylamino)ethyl)-1H-indol-4-ol]
crystalline form by XRPD after maturation in 12 different solvents [1]: retained their initial crystalline form

CN(C)CCc1c[nH]c2cccc(O)c12 [Compound I-7, 3-(2-(dimethylamino)ethyl)-1H-indol-4-ol]
solution stability in 0.1 M acid solutions (solution-phase salts), with or without metal salts ([6]; all tested acids): excellent stability | solution stability of psilocin without acid [6]: nearly all psilocin being degraded within 24 hours | solution stability without acid in presence of Fe3+ and Al3+ metal ions [6]: significant psilocin degradation | effect of metal salts (Fe3+ and Al3+) in citrate buffer ([7]; 0.1 M sodium citrate buffer pH 6.01): no detrimental effects | solution stability in non-citrate buffered solutions with Fe3+ and Al3+ ([7]; 4, 23 and 40 °C): significant psilocin degradation | solution stability without sodium citrate buffer ([7]; 4, 23 and 40 °C): nearly all psilocin being degraded by the 18 hour time point | degradation of psilocin in 0.1 M sodium citrate buffer ([7]; 40 °C, up to 24 h): 10-15% | solution stability in 0.1 M sodium citrate buffer ([7]; pH 6.01, 4 °C and room temperature, up to 24 h): greatly stabilized psilocin | stability in phosphate buffer pH 6.0 versus pH 7.5 [8]: better stability than at pH 7.5 | long-term stability in citric acid solution ([9]; pH 1.60, 4 °C and 23 °C): only minimal degradation | long-term stability in sodium citrate buffer, cold storage ([9]; pH 6.01, 4 °C): remained stable for up to 17 days | long-term stability in sodium citrate buffer, room temperature ([9]; pH 6.01, 23 °C): degradation of psilocin began within a week | stability with cyclodextrins against high temperature or metal induced degradation [10]: cyclodextrins did not impart stability | solution stability without citric acid ([11]; 4, 23 and 40 °C): nearly all psilocin being degraded by the 18 hour time point | solution stability without citric acid in presence of Fe3+ and Al3+ ([11]; 4, 23 and 40 °C): significant psilocin degradation | solution stability with small quantities of citric acid (pH 3.2) ([11]; 4 °C and room temperature (23 °C), up to 24 h): greatly enhanced the stability of psilocin | psilocin stabilization (% psilocin remaining) with small quantities of citric acid ([11]; 40 °C, 24 hour time point): 30% | stability against metal salts with antioxidants (EDTA, ascorbic acid, L-cysteine, sodium metabisulfite, propyl gallate) [12]: none of the antioxidants tested were able to provide stability | Tmax ([4]; Group 1, IV, psilocin + psilocin-d10 1 + 1 mg/kg): IAD | Tmax [4, 13]: IAD | onset, duration and variability of plasma exposure versus oral psilocybin ([4]; rats, oral): a faster onset, a shorter duration of effect, and less variability in drug exposure than oral psilocybin

Source: patent publication US20250213527A1, “FORMULATIONS OF PSILOCYBIN ANALOGS AND METHODS OF USE” (priority 2021, published 2025)
